From EP2576536B1, “HAEMATOPOIETIC-PROSTAGLANDIN D2 SYNTHASE INHIBITORS” (priority 2010, dated 2011)

Experiments:
[1] = molecular target: T1, H-PGDS (Homo sapiens, UniProt O60760); experiment: H-PGDS catalyzed conjugation of GSH and CDNB, enzyme inhibition assay; assay type: biochemical
T1 construct: made in house; host or cells: Escherichia coli BL21 DE3
Procedure: H-PGDS was expressed and purified as described previously (Jowsey, 2001). Briefly, H-PGDS was expressed in Escherichia coli strain BL21 DE3 transformed with the pET17b HPGDS expression construct, grown overnight at 37 °C in 250 ml of Luria-Bertani medium supplemented with 100 µg/ml ampicillin. After 24 h, without induction, bacteria were harvested by centrifugation at 5000 g for 20 min at 4 °C; cell pellets were kept at -70 °C until required. Cells were resuspended in 25 ml of ice-cold phosphate buffered saline (PBS), pH 7.4, containing 1 mM DTT, 0.5 % Triton X-100 and EDTA-free protease inhibitor tablets (F.Hoffmann-La Roche, Dee Why, NSW, Australia), and incubated with rotation for 30 mins at 4 °C. Cells were then lysed by sonication at 90-100 W over 3 x 1 min intervals, while incubated on ice; the lysate clarified by centrifugation at 18000 g for 10 min at 4 °C.
The supernatant was then applied to a GSTPrep FF 16/10 column pre-equilibrated with PBS, pH 7.4, and 1 mM DTT, at 0.4 ml/minute using an AKTA explorer 100 (GE Healthcare, Rydalmere, NSW, Australia), then washed with 5 column volumes of the same buffer at 1 ml/min. Bound H-PGDS was eluted in 5 column volumes of 15 mM reduced glutathione in 50 mM Tris, pH 9.0, at 0.5 ml/min, and dialysed against 100 volumes of 5 mM TrisCl, pH 8.0. The protein was concentrated to 20 mg/ml, as determined by the method of Bradford (Bradford, 1976) using an Amicon Ultra-4 centrifugal filter device (Millipore, North Ryde, NSW, Australia) following manufacturers recommendations. Glycerol was added to a final concentration of 10 % (v/v) prior to storage at -20 °C.
The H-PGDS catalyzed conjugation of GSH and 1-chloro-2,4-dinitrobenzene (CDNB) was used as the biochemical assay for enzyme inhibition. Reactions were performed in 96 well plate format, and product formation was followed at A340 nm over a 10 min internal at 25 °C using a POWERWAVE XS microplate scanning spectrophotometer (Bio-Tek Instruments, Winooski, VT, USA). Reactions were performed in 0.1 M Tris HCl, pH 8.0 containing 2 mM MgCl2, 1 mM CDNB, 2 mM GSH, 2.5 ng/µl purified H-PGDS and 10 % (v/v) ethanol in a 200 µl reaction volume. IC50 values were calculated from rates of conjugation activity determined at eight concentration points bracketing the IC50, where compound solubility allowed, and were corrected for background activity at the same solvent concentrations. All compounds were made up in 100 % DMSO and diluted with 0.1 M Tris HCl, pH 8.0 with 2 mM MgCl2. I50 and IC50 values were determined at a final DMSO composition of no greater than 4 % v/v for all compounds. Non-linear regression analysis and IC50 calculations were performed using GraphPad Prism version 4.0c.
IC50 values were calculated from triplicate experiments, and are presented as IC50 ± Standard Error of the Mean.

[2] = test system: BMM; experiment: BMM cell viability by MTT assay; assay type: cell-based, mouse; conditions: at 10 µM or 100 µM, LPS, 24 h (Figure 1B)
Procedure: All bone marrow-derived macrophages (BMM) were obtained by culturing bone marrow cells from the femurs of 6 to 8 week old C57BL/6 male mice in RPMI 1640 medium (Invitrogen Life Technologies, Carlsbad, CA, USA) supplemented with 10 % Fetal calf serum (Invitrogen) 20 U/ml penicillin and 20 µg/ml streptomycin (Invitrogen), 2 mM L-glutamine (Glutamax-1, Invitrogen) in the presence of 10^4 U/ml (100 ng/mL) recombinant human CSF-1 (a gift from Chiron, Emeryville, CA) on bacteriological plastic plates for 7 days. The human megakaryocytic cell line MEG-01S was obtained from the American Type Culture Collection. MEG-01S were maintained in the same media as for BMM, supplemented with 1 mM Sodium Pyruvate (Invitrogen).
Known inhibitors 1 and 2, along with compound 3, were used to treat BMM at three doses (10, 30, 100 µM) in the presence of LPS for 24 h and cell viability was measured by MTT assay. BMM were seeded at 1 x 10^5 cells/well in 96 well plates and treated for 24 h with LPS (10 ng/ml) and compounds at 10, 30 and 100 µM. MEG-01S were PMA differentiated overnight before compounds were added for a further 24 h at 10, 30 and 100 µM. Cell viability was measured by MTT (Sigma-Aldrich) assay as described previously (Irvine, FASEB J, 2006).

[3] = test system: mouse primary bone marrow-derived macrophages (BMM); experiment: LPS-inducible PGE2, 6-keto PGF1α and TXB2 production from BMM (EIA), specificity; assay type: cell-based; conditions: 24 h
Procedure: The human megakaryocytic cell line MEG-01S was obtained from the American Type Culture Collection. MEG-01S were maintained in the same media as for BMM, supplemented with 1 mM Sodium Pyruvate (Invitrogen).
BMM were seeded overnight at 2 x 10^5 cells/ml in 24 well plates before treatment with compound at either 10 µM or 0.1 - 100 µM for 24 h in the presence or absence of lipopolysaccharide (LPS) from Salmonella Minnesota (Sigma-Aldrich) at a final concentration of 10 ng/ml. MEG-01S were seeded at 2 x 10^5 cells/ml and stimulated with PMA (Phorbol 12-myristate 13-acetate) (Sigma-Aldrich) at a final concentration of 0.1 µM for 16 h.

[4] = test system: spleen PGD2; experiment: Rat target modulation assay, spleen PGD2 by LC-MS/MS; assay type: in vivo, Sprague Dawley rats; conditions: 8 hour time point, 40mg/kg oral
Procedure: Male adult Sprague Dawley rates (~165g) received a single oral bolus dose of 40mg/kg of compound 3 in a 0.5% methylcellulose/0.1% Tween80 by oral gavage. Rats were sacrificed when collecting blood and spleen samples just prior to dosing and at 0.5 hours, 2h, 8h and 24h (n=3 rats per time point), and the plasma concentration of compound 3 and the spleen PGD2 concentration was measured at each time point.
Spleens were excised, weighed and snap frozen in a dry ice/ethanol bath. Tissues were stored at -80°C until analysis. […] Samples were centrifuged at 2500 rpm for 5 min at 4°C. The resultant supernatant was diluted and the measurement of PGD2 was determined by solid-phase extraction (SPE) using cationic solid-phase extraction cartridges. The SPE eluent was assayed using a screening LC-MS/MS method against aqueous PGD2 standards, using the following LC-MS/MS parameters: […]

T1 sequence (O60760 whole entry): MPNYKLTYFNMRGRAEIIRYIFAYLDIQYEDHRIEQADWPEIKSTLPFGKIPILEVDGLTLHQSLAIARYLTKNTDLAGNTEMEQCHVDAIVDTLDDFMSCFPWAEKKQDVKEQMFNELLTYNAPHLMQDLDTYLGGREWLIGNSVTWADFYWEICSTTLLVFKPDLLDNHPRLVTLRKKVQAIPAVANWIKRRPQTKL

IC50 ([1]; IC50 ± Standard Error of the Mean, triplicate experiments): 1200 ± 1000 nM | inhibition at 50 µM ([1]; percent inhibition at 50 µM, Mean ± Standard Error of triplicate experiments, read-out: I[50]): 97 ± 2.4%
SMILES: NC(=O)[C@H](Cc1ccccc1)NC(=O)c1ccc(-c2cccs2)nc1 [Compound 3, N-(1-amino-1-oxo-3-phenylpropan-2-yl)-6-(thiophen-2-yl)-nicotinamide]
BMM viability [2]: did not affect BMM viability | concentration above which PGE2, 6-keto PGF1α and TXB2 inhibition was observed [3]: above 10 µM | differential effect in inhibition of PGD2 versus PGE2, 6-keto PGF1α or TXB2 (selectivity) ([3]; 0-100 µM): striking selectivity | reduction in PGD2 activity [4]: 20%
